In patent US20240270741A1 (Cogent Biosciences, Inc., priority 2023, published 2024):

These molecules were tested against FGFR2 (Homo sapiens, UniProt P21802) (assay: FGFR wild type enzyme assay (HTRF KinEASE-TK), FGFR2). Conditions: Enz FGFR2 (nM), FGFR2 wild type enzyme assay.
Sequence of FGFR2 (P21802 399-821 limits assumed): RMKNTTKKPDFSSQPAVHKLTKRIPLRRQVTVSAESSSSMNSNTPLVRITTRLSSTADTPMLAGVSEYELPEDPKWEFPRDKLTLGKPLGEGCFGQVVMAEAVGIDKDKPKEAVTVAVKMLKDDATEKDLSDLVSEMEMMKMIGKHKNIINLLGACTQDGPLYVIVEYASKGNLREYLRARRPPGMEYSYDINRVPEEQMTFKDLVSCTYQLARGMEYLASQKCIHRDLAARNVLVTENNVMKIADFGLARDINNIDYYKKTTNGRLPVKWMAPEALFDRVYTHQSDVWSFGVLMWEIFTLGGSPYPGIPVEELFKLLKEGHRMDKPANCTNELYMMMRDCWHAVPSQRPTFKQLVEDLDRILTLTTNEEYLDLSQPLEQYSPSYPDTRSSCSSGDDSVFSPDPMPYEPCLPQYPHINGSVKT

IC50 [nM]	SMILES
1	CC(=O)N[C@H]1CC[C@@H](n2ncc(-c3cc(Sc4nc(N)ccc4F)c4c(C#N)cnn4c3)c2C)CC1 [Example 383, N-((1s,4s)-4-(4-(4-((6-amino-3-fluoropyridin-2-yl)thio)-3-cyanopyrazolo[1,5-a]pyridin-6-yl)-5-methyl-1H-pyrazol-1-yl)cyclohexyl)acetamide]
1	CC(=O)N[C@H]1CC[C@@H](n2ncc(-c3cc(Sc4nc(F)ccc4F)c4c(C#N)cnn4c3)c2C)CC1 [Example 384, N-((1s,4s)-4-(4-(3-cyano-4-((3,6-difluoropyridin-2-y)thio)pyrazolo[1,5-a]pyridin-6-yl)-5-methyl-1H-pyrazol-1-yl)cyclohexyl)acetamide]
1.5	Cc1c(-c2cc(Sc3cccc(Cl)c3C#N)c3c(C#N)cnn3c2)cnn1C1CCN(C)CC1 [Example 385, 4-((3-chloro-2-cyanophenyl)thio)-6-(5-methyl-1-(1-methylpiperidin-4-yl)-1H-pyrazol-4-yl)pyrazolo[1,5-a]pyridine-3-carbonitrile]
5	COc1cc(Sc2cc(-c3cnn(C4CCN(C)CC4)c3C)cn3ncc(C#N)c23)c(C#N)cc1F [Example 386, 4-((2-cyano-4-fluoro-5-methoxyphenyl)thio)-6-(5-methyl-1-(1-methylpiperidin-4-yl)-1H-pyrazol-4-yl)pyrazolo[1,5-a]pyridine-3-carbonitrile]
1	Cc1c(-c2cc(Sc3ccc(F)cc3C#N)c3c(C#N)cnn3c2)cnn1[C@H]1CCN(C)C(C)(C)C1 [Example 387, (S)-4-((2-cyano-4-fluorophenyl)thio)-6-(5-methyl-1-(1,2,2-trimethylpiperidin-4-yl)-1H-pyrazol-4-yl)pyrazolo[1,5-a]pyridine-3-carbonitrile]
0.5	Cc1c(-c2cc(Sc3ccc(F)cc3C#N)c3c(C#N)cnn3c2)cnn1[C@@H]1CCN(C)C(C)(C)C1 [Example 388, (R)-4-((2-cyano-4-fluorophenyl)thio)-6-(5-methyl-1-(1,2,2-trimethylpiperidin-4-yl)-1H-pyrazol-4-yl)pyrazolo[1,5-a]pyridine-3-carbonitrile]
5	Cc1c(-c2cc(Sc3ncc(F)cc3F)c3c(C#N)cnn3c2)cnn1[C@H]1CCN(C)C(C)(C)C1 [Example 389, (S)-4-((3,5-difluoropyridin-2-yl)thio)-6-(5-methyl-1-(1,2,2-trimethylpiperidin-4-yl)-1H-pyrazol-4-yl)pyrazolo[1,5-a]pyridine-3-carbonitrile]
42	Cc1c(-c2cc(Sc3ncc(F)cc3F)c3c(C#N)cnn3c2)cnn1[C@@H]1CCN(C)C(C)(C)C1 [Example 390, (R)-4-((3,5-difluoropyridin-2-yl)thio)-6-(5-methyl-1-(1,2,2-trimethylpiperidin-4-yl)-1H-pyrazol-4-yl)pyrazolo[1,5-a]pyridine-3-carbonitrile]
1	Cc1c(-c2cc(Sc3ccc(F)cc3C#N)c3c(C#N)cnn3c2)cnn1[C@H]1CC[C@H](N(C)CCO)CC1 [Example 391, 4-((2-cyano-4-fluorophenyl)thio)-6-(1-((1r,4r)-4-((2-hydroxyethyl)(methyl)ami-no)cyclohexyl)-5-methyl-1H-pyrazol-4-yl)pyrazolo[1,5-a]pyridine-3-carbonitrile]
12	CN(C)[C@H]1CC[C@@H](n2cc(-c3cc(Sc4ncccc4F)c4c(C#N)cnn4c3)nn2)CC1 [Example 392, 6-[1-[4-(dimethylamino)cyclohexyl]triazol-4-yl]-4-[(3-fluoro-2-pyridyl)sulfanyl] pyrazolo [1,5-a]pyridine-3-carbonitrile]
6	CC(=O)N[C@H]1CC[C@@H](n2cc(-c3cc(Sc4ncccc4F)c4c(C#N)cnn4c3)c(C)n2)CC1 [Example 393, N-((1s,4s)-4-(4-(3-cyano-4-((3-fluoropyridin-2-yl)thio)pyrazolo[1,5-a]pyridin-6-yl)-3-methyl-1H-pyrazol-1-yl)cyclohexyl)acetamide]
3	CC(=O)N[C@H]1CC[C@@H](n2cc(-c3cc(Sc4ccccc4C#N)c4c(C#N)cnn4c3)c(C)n2)CC1 [Example 394, N-((1s,4s)-4-(4-(3-cyano-4-((2-cyanophenyl)thio)pyrazolo [1,5-a]pyridin-6-yl)-3-methyl-1H-pyrazol-1-yl)cyclohexyl)acetamide]
3	CN1CCC(n2ncc(-c3cc(Sc4ncccc4F)c4c(C#N)cnn4c3)c2Cl)CC1 [Example 395, 6-(5-chloro-1-(1-methylpiperidin-4-yl)-1H-pyrazol-4-yl)-4-((3-fluoropyridin-2-yl)thio)pyrazolo[1,5-a]pyridine-3-carbonitrile]
1	CN1CCC(n2ncc(-c3cc(Sc4ccccc4C#N)c4c(C#N)cnn4c3)c2Cl)CC1 [Example 396, 6-(5-chloro-1-(1-methylpiperidin-4-yl)-1H-pyrazol-4-yl)-4-((2-cyanophenyl)thio)pyrazolo [1,5-a]pyridine-3-carbonitrile]
5	CC(=O)N1CCC(n2ncc(-c3cc(Sc4ncccc4F)c4c(C#N)cnn4c3)c2F)CC1 [Example 397, 6-(1-(1-acetylpiperidin-4-yl)-5-fluoro-1H-pyrazol-4-yl)-4-((3-fluoropyridin-2-yl)thio)pyrazolo[1,5-a]pyridine-3-carbonitrile]
2	CC(=O)N1CCC(n2ncc(-c3cc(Sc4ccccc4C#N)c4c(C#N)cnn4c3)c2F)CC1 [Example 398, 6-(1-(1-acetylpiperidin-4-yl)-5-fluoro-1H-pyrazol-4-yl)-4-((2-cyanophenyl)thio)pyrazolo [1,5-a]pyridine-3-carbonitrile]
2	CC(=O)N1CCC(n2ncc(-c3cc(Sc4nc(C)c(F)cc4F)c4c(C#N)cnn4c3)c2C)CC1 [Example 399, 6-(1-(1-acetylpiperidin-4-yl)-5-methyl-1H-pyrazol-4-yl)-4-((3,5-difluoro-6-methylpyridin-2-yl)thio)pyrazolo[1,5-a]pyridine-3-carbonitrile]
3	CC(=O)N1CCC(n2cc(-c3cc(Sc4ccccc4C#N)c4c(C#N)cnn4c3)c(C)n2)CC1 [Example 400, 6-(1-(1-acetylpiperidin-4-yl)-3-methyl-1H-pyrazol-4-yl)-4-((2-cyanophenyl)thio)pyrazolo [1,5-a]pyridine-3-carbonitrile]
7	CC(=O)N1CCC(n2cc(-c3cc(Sc4ncccc4F)c4c(C#N)cnn4c3)c(C)n2)CC1 [Example 401, 6-(1-(1-acetylpiperidin-4-yl)-3-methyl-1H-pyrazol-4-yl)-4-((3-fluoropyridin-2-yl)thio)pyrazolo[1,5-a]pyridine-3-carbonitrile]
2	Cc1c(-c2cc(Sc3ccc(F)cc3C#N)c3c(C#N)cnn3c2)cnn1[C@H]1CCCN(S(C)(=O)=O)C1 [Example 402, (S)-4-((2-cyano-4-fluorophenyl)thio)-6-(5-methyl-1-(1-(methylsulfonyl)piperidin-3-yl)-1H-pyrazol-4-yl)pyrazolo[1,5-a]pyridine-3-carbonitrile]
2	Cc1c(-c2cc(Sc3ccc(F)cc3C#N)c3c(C#N)cnn3c2)cnn1C1CCN(S(C)(=O)=O)CC1 [Example 403, 4-((2-cyano-4-fluorophenyl)thio)-6-(5-methyl-1-(1-(methylsulfonyl)piperidin-4-yl)-1H-pyrazol-4-yl)pyrazolo[1,5-a]pyridine-3-carbonitrile]
15	N#Cc1cnn2cc(-c3cn([C@H]4CCCNC4)nn3)cc(Sc3ncccc3F)c12 [Example 404, (S)-4-((3-fluoropyridin-2-yl)thio)-6-(1-(piperidin-3-yl)-1H-1,2,3-triazol-4-yl)pyrazolo[1,5-a]pyridine-3-carbonitrile]
2	N#Cc1cc(F)ccc1Sc1cc(-c2ccc(N3CCOCC3)nc2)cn2ncc(C#N)c12 [Example 405, 4-((2-cyano-4-fluorophenyl)thio)-6-(6-morpholinopyridin-3-yl)pyrazolo[1,5-a]pyridine-3-carbonitrile]
1	Cc1c(-c2cc(Sc3ccccc3C#N)c3c(C#N)cnn3c2)cnn1C1CCN(C(=O)N(C)C)CC1 [Example 406, 4-(4-(3-cyano-4-((2-cyanophenyl)thio)pyrazolo [1,5-a]pyridin-6-yl)-5-methyl-1H-pyrazol-1-yl)-N,N-dimethylpiperidine-1-carboxamide]
0.2	CN(c1ccc(-c2cc(Sc3ccccc3C#N)c3c(C#N)cnn3c2)cn1)C1CCCNC1 (centres unmarked) [Example 407, 4-(2-cyanophenyl)sulfanyl-6-[6-[methyl(3-piperidyl)amino]-3-pyridyl]pyrazolo[1,5-a]pyridine-3-carbonitrile]
2	CC(=O)N1CCC(n2ncc(-c3cc(Sc4nc(C)c(Cl)cc4F)c4c(C#N)cnn4c3)c2C)CC1 [Example 408, 6-(1-(1-acetylpiperidin-4-yl)-5-methyl-1H-pyrazol-4-yl)-4-((5-chloro-3-fluoro-6-methylpyridin-2-yl)thio)pyrazolo[1,5-a]pyridine-3-carbonitrile]
5	CC(=O)N1[C@@H]2CC[C@H]1C[C@H](n1cc(-c3cc(Sc4ccccc4C#N)c4c(C#N)cnn4c3)c(C)n1)C2 [Example 409, 6-(1-((1R,3s,5S)-8-acetyl-8-azabicyclo[3.2.1]octan-3-yl)-3-methyl-1H-pyrazol-4-yl)-4-((2-cyanophenyl)thio)pyrazolo [1,5-a]pyridine-3-carbonitrile]
26	CC(=O)N1[C@@H]2CC[C@H]1C[C@H](n1cc(-c3cc(Sc4ccc(F)cc4C#N)c4c(C#N)cnn4c3)c(C)n1)C2 [Example 410, 6-(1-((1R,3s,5S)-8-acetyl-8-azabicyclo[3.2.1]octan-3-yl)-3-methyl-1H-pyrazol-4-yl)-4-((2-cyano-4-fluorophenyl)thio)pyrazolo [1,5-a]pyridine-3-carbonitrile]
2	CC(=O)N1CC[C@H](n2ncc(-c3cc(Sc4ccc(F)cc4C#N)c4c(C#N)cnn4c3)c2C)C[C@@H]1C [Example 411, 6-(1-((2S,4S)-1-acetyl-2-methylpiperidin-4-yl)-5-methyl-1H-pyrazol-4-yl)-4-((2-cyano-4-fluorophenyl)thio)pyrazolo [1,5-a]pyridine-3-carbonitrile]
